Experimental data published in paper PMC6670175 (Virology Journal, 2019).
“And” between values parts separate entries of the source, which are not always exact repeats. Identical values can stand only once. Like-named read-outs stand apart in the source and are kept apart here. Ends that are not written are not given here.

Legend:
[1] = tested on: PRV Ea strain; type: cell-based, pseudorabies virus
[2] = tested on: PEDV YNKM strain; type: cell-based, porcine epidemic diarrhea virus; details: for residual infectivity: n = 3
[3] = tested on: PRRSV YA isolate; type: cell-based, porcine reproductive and respiratory syndrome virus
[4] = tested on: TGEV WH-1 strain; type: cell-based, transmissible gastroenteritis virus; details: for residual infectivity: n = 3
[5] = tested on: RV TM-a strain; type: cell-based, rotavirus; details: n = 3
[6] = tested on: PRV-HNXX; type: cell-based, pseudorabies virus; details: n = 3
[7] = tested on: PRV-152 (modified Bartha strain); type: cell-based, pseudorabies virus; details: n = 3
[8] = tested on: PRV-Ea; type: cell-based, pseudorabies virus
[9] = tested on: PK-15 cells
[10] = tested on: PRV-Ea
[11] = tested on: PRV-Ea; remark: listed apart in the source

Row | Compound | residual infectivity ([1]; n = 3) | residual infectivity [5] | inhibitory activity against PRV HNXX (in words) [6] | inhibitory activity against PRV 152 (in words) [7] | inhibitory effect on PRV, post-infection (curative) [8] | inhibitory effect on PRV, pre-infection (prophylactic) [8] | 50% toxic concentration (TC50) ([9]; 48 h) | inhibition of PRV particles (in words) [10] | 50% effective concentration (EC50) ([10]; 1 h) | antiviral activity against PRV (in words) [1] | decrease in the residual infectivity [1] | residual infectivity [2] | residual infectivity [4] | further results
1 | GLFGVLAKVAAHVVPAIAEHF-NH2 (C-terminus assumed) [maculatin, maculatin 1.1] | 10.1% and 10.11% | 43.4% | displayed inhibitory activities | displayed inhibitory activities | No inhibitory effect | No inhibitory effect | 76.6 µg/mL | inhibit most of the PRV particles | 1.09 µg/mL | – | – | – | – | residual infectivity [1]: 0.0017%; activity against PEDV (in words) [2]: limited activity; activity against PRRSV (in words) [3]: limited activity; activity against TGEV (in words) [4]: limited activity
2 | CC[C@H](C)[C@H](N)C(=O)N[C@@H](CC(C)C)C(=O)N1CCC[C@H]1C(=O)N[C@@H](Cc1c[nH]c2ccccc12)C(=O)N[C@@H](CCCCN)C(=O)N[C@@H](Cc1c[nH]c2ccccc12)C(=O)N1CCC[C@H]1C(=O)N[C@@H](Cc1c[nH]c2ccccc12)C(=O)N[C@@H](Cc1c[nH]c2ccccc12)C(=O)N1CCC[C@H]1C(=O)N[C@@H](Cc1c[nH]c2ccccc12)C(=O)N[C@@H](CCCNC(=N)N)C(=O)N[C@@H](CCCNC(=N)N)C(N)=O [indolicidin] | 34.6% | – | – | – | – | – | 110.2 µg/mL | – | – | mild antiviral activity | – | – | – | –
3 | FFHHIFRGIVHVGKTIHRLVTG [piscidin, piscidin 1] | around 2.3% | 7.4% | displayed inhibitory activities | displayed inhibitory activities | No inhibitory effect | No inhibitory effect | – | inhibit most of the PRV particles | – | – | more than 30 folds | lower than 50% | 41.5% | 50% toxic concentration (TC50) [9]: 65.2 µg/mL; 50% effective concentration (EC50) ([10]; n = 3): 0.23 µg/mL; brain pathology (H&E) ([11]; mouse, in vivo): no specific symptom; clinical signs, peptide alone ([11]; mouse, in vivo): remained asymptomatic; clinical symptoms versus PRV infected mice ([11]; mouse, in vivo): symptoms appeared later and not so severe; outcome after re-challenge ([11]; mouse, in vivo): all died; protection against PRV infection (in words) ([11]; mouse, in vivo): obviously protected; survival and behaviour after peptide alone ([11]; mouse, in vivo): All mice survived and behaved normally; survival rate of mice ([11]; mouse, in vivo): 90%; survival rates at the end of the experiment ([11]; mouse, in vivo): 30%; mice with severe neurological symptoms euthanized ([11]; n = 10): 6 and 5 and 7
4 | GLLSVLGSVAKHVLPHVVPVIAEHL-NH2 (C-terminus assumed) [caerin, caerin 1.1] | around 2.3% | lower than 50% | displayed inhibitory activities | displayed inhibitory activities | No inhibitory effect | No inhibitory effect | 67.8 µg/mL | inhibit most of the PRV particles | 2.63 µg/mL | – | more than 30 folds | 0.2% | – | residual infectivity ([3]; n = 3): 41.1%
5 | FKCRRWQWRMKKLGAPSITCVRRAF [lactoferricin B] | – | – | – | – | – | – | – | – | – | mild antiviral activity | – | – | 54.1% | cytotoxic activity at maximum concentration [9]: did not exhibit obvious cytotoxic activity
